Measured values as given in ChEMBL document CHEMBL3217615, “Novel 3,5-bis(arylidiene)-4-piperidone based monocarbonyl analogs of curcumin: anticancer activity evaluation and mode of action study” (2014).

Columns and labels:
Format in all cases: functional
SK-MEL-2 [1] = assay: Growth inhibition of human SK-MEL-2 cells after 48 hrs by sulforhodamine B assay; conditions: SK-MEL-2, 48 h; for CC50: read-out: LC50 (the source's name)
COLO 205 [2] = assay: Induction of apoptosis in human COLO205 cells assessed as DNA fragmentation at 10 uM
[3] = Growth inhibition of human UACC62 cells assessed as cell growth at 10^-6 M after 48 hrs by sulforhodamine B assay; conditions: UACC-62, 48 h, read-out: Activity
[4] = Growth inhibition of human UACC257 cells assessed as cell growth at 10^-6 M after 48 hrs by sulforhodamine B assay; conditions: UACC-257, 48 h, read-out: Activity
[5] = Growth inhibition of human LOXIMVI cells assessed as cell growth at 10^-6 M after 48 hrs by sulforhodamine B assay; conditions: LOX IMVI, read-out: Activity
[6] = Growth inhibition of human SF295 cells assessed as cell growth at 10^-6 M after 48 hrs by sulforhodamine B assay; conditions: SF-295, 48 h, read-out: Activity
SW-620 [7] = assay: Growth inhibition of human SW620 cells assessed as cell growth at 10^-6 M after 48 hrs by sulforhodamine B assay; conditions: SW-620, 48 h, read-out: Activity
A549 [8] = assay: Growth inhibition of human A549/ATCC cells assessed as cell growth at 10^-6 M after 48 hrs by sulforhodamine B assay; conditions: A549, 48 h, read-out: Activity
[9] = Growth inhibition of human RXF393 cells assessed as cell growth at 10^-7 M after 48 hrs by sulforhodamine B assay; conditions: RXF 393, 48 h, read-out: Activity
SK-MEL-2 [10] = assay: Growth inhibition of human SK-MEL-2 cells assessed as cell growth at 10^-5 M after 48 hrs by sulforhodamine B assay; conditions: SK-MEL-2, 48 h, read-out: Activity
SK-OV-3 = assay: Growth inhibition of human SKOV3 cells assessed as cell growth at 10^-6 M after 48 hrs by sulforhodamine B assay; conditions: SK-OV-3, 48 h, read-out: Activity
Malme-3M = assay: Growth inhibition of human MALME-3M cells assessed as cell growth at 10^-8 M after 48 hrs by sulforhodamine B assay; conditions: for growth at 0.01 µM: read-out: Activity
KM12 = assay: Growth inhibition of human KM12 cells assessed as cell growth at 10^-8 M after 48 hrs by sulforhodamine B assay; conditions: KM12, 48 h; for growth at 0.01 µM: read-out: Activity; for TGI: read-out: pTGI (converted)
[11] = Growth inhibition of human HCT15 cells assessed as cell growth at 10^-8 M after 48 hrs by sulforhodamine B assay; conditions: HCT-15, 48 h; for growth at 0.01 µM: read-out: Activity; for TGI: read-out: pTGI (converted)
COLO 205 [12] = assay: Growth inhibition of human COLO205 cells assessed as cell growth at 10^-8 M after 48 hrs by sulforhodamine B assay; conditions: COLO 205, 48 h; for growth at 0.01 µM: read-out: Activity; for TGI: read-out: pTGI (converted)
RPMI-8226 = assay: Growth inhibition of human RPMI8226 cells assessed as cell growth at 10^-8 M after 48 hrs by sulforhodamine B assay; conditions: RPMI-8226, 48 h; for growth at 0.01 µM: read-out: Activity; for CC50: read-out: pLC50 (the source's name) (converted); for TGI: read-out: pTGI (converted)
K562 = assay: Growth inhibition of human K562 cells assessed as cell growth at 10^-8 M after 48 hrs by sulforhodamine B assay; conditions: K562, 48 h; for growth at 0.01 µM: read-out: Activity; for CC50: read-out: pLC50 (the source's name) (converted); for TGI: read-out: pTGI (converted)
SN12C = assay: Growth inhibition of human SN12C cells after 48 hrs by sulforhodamine B assay; conditions: for CC50: read-out: LC50 (the source's name)
CAKI-1 = assay: Growth inhibition of human CAKI-1 cells after 48 hrs by sulforhodamine B assay; conditions: CAKI-1, 48 h; for CC50: read-out: LC50 (the source's name)
U-251 [13] = assay: Growth inhibition of human U251 cells after 48 hrs by sulforhodamine B assay; conditions: U-251, 48 h; for CC50: read-out: LC50 (the source's name)
SW-620 [14] = assay: Growth inhibition of human SW620 cells after 48 hrs by sulforhodamine B assay; conditions: SW-620, 48 h; for CC50: read-out: LC50 (the source's name)
COLO 205 [15] = assay: Growth inhibition of human COLO205 cells after 48 hrs by sulforhodamine B assay; conditions: COLO 205, 48 h; for CC50: read-out: LC50 (the source's name)
[16] = Growth inhibition of human HOP92 cells after 48 hrs by sulforhodamine B assay; conditions: HOP-92, 48 h; for CC50: read-out: LC50 (the source's name)
CCRF-CEM = assay: Growth inhibition of human CCRF-CEM cells after 48 hrs by sulforhodamine B assay; conditions: for CC50: read-out: LC50 (the source's name)
T47D = assay: Growth inhibition of human T47D cells assessed as cell growth at 10^-4 M after 48 hrs by sulforhodamine B assay; conditions: read-out: Activity
MDA-MB-435 = assay: Growth inhibition of human MDA-MB-435 cells assessed as cell growth at 10^-7 M after 48 hrs by sulforhodamine B assay; conditions: MDA-MB-435, 48 h, read-out: Activity
U-251 [17] = assay: Growth inhibition of human U251 cells assessed as cell growth at 10^-7 M after 48 hrs by sulforhodamine B assay; conditions: U-251, 48 h, read-out: Activity
SNB-19 = assay: Growth inhibition of human SNB19 cells assessed as cell growth at 10^-7 M after 48 hrs by sulforhodamine B assay; conditions: SNB-19, 48 h, read-out: Activity
[18] = Growth inhibition of human SF295 cells assessed as cell growth at 10^-7 M after 48 hrs by sulforhodamine B assay; conditions: SF-295, 48 h, read-out: Activity
SF-268 = assay: Growth inhibition of human SF268 cells assessed as cell growth at 10^-7 M after 48 hrs by sulforhodamine B assay; conditions: SF-268, 48 h, read-out: Activity
A549 [19] = assay: Growth inhibition of human A549/ATCC cells assessed as cell growth at 10^-7 M after 48 hrs by sulforhodamine B assay; conditions: A549, 48 h, read-out: Activity
PC-3 = assay: Growth inhibition of human PC3 cells assessed as cell growth at 10^-8 M after 48 hrs by sulforhodamine B assay; conditions: PC-3, 48 h; for growth at 0.01 µM: read-out: Activity; for TGI: read-out: pTGI (converted)
[20] = Growth inhibition of human NCI-ADR-RES cells assessed as cell growth at 10^-8 M after 48 hrs by sulforhodamine B assay; conditions: for growth at 0.01 µM: read-out: Activity; for TGI: read-out: pTGI (converted)

O=C1/C(=C/c2ccc(Cl)cc2Cl)CN(S(=O)(=O)c2ccccc2)C/C1=C\c1ccc(Cl)cc1Cl
GI50 (SK-MEL-2 [1]): 6.01 µM
TGI (SK-MEL-2 [1]): > 100 µM
CC50 (SK-MEL-2 [1]): > 100 µM
Activity (COLO 205 [2]): 45%
growth at 1 µM [3]: 45%
growth at 1 µM [4]: 86%
growth at 1 µM [5]: -37%
growth at 1 µM [6]: 13%
growth at 1 µM (SW-620 [7]): 4%
growth at 1 µM (A549 [8]): -5%
growth at 0.1 µM [9]: 84%
growth at 10 µM (SK-MEL-2 [10]): 36%
growth at 1 µM (SK-OV-3): 108%
GI50 (Malme-3M): 3.24 µM
LC50 (Malme-3M): > 100 µM
growth at 0.01 µM (Malme-3M): 118%
GI50 (KM12): 0.257 µM
LC50 (KM12): 25.7 µM
growth at 0.01 µM (KM12): 100%
TGI (KM12): 0.603 µM
GI50 [11]: 0.245 µM
LC50 [11]: > 100 µM
growth at 0.01 µM [11]: 95%
TGI [11]: 0.759 µM
GI50 (COLO 205 [12]): 0.427 µM
LC50 (COLO 205 [12]): > 100 µM
growth at 0.01 µM (COLO 205 [12]): 106%
TGI (COLO 205 [12]): 2 µM
GI50 (RPMI-8226): 0.224 µM
growth at 0.01 µM (RPMI-8226): 104%
CC50 (RPMI-8226): > 100 µM
TGI (RPMI-8226): 0.603 µM
GI50 (K562): 0.347 µM
growth at 0.01 µM (K562): 102%
CC50 (K562): > 100 µM
TGI (K562): > 100 µM
GI50 (SN12C): 0.245 µM
TGI (SN12C): 0.718 µM
CC50 (SN12C): > 100 µM
GI50 (CAKI-1): 1.84 µM
TGI (CAKI-1): 5.75 µM
CC50 (CAKI-1): > 100 µM
GI50 (U-251 [13]): 0.173 µM
TGI (U-251 [13]): 0.373 µM
CC50 (U-251 [13]): 0.805 µM
GI50 (SW-620 [14]): 0.317 µM
TGI (SW-620 [14]): 2.79 µM
CC50 (SW-620 [14]): > 100 µM
GI50 (COLO 205 [15]): 0.424 µM
TGI (COLO 205 [15]): 2.01 µM
CC50 (COLO 205 [15]): > 100 µM
GI50 [16]: 1.7 µM
TGI [16]: 5.55 µM
CC50 [16]: > 100 µM
GI50 (CCRF-CEM): 0.286 µM
TGI (CCRF-CEM): 0.994 µM
CC50 (CCRF-CEM): > 100 µM
growth at 100 µM (T47D): 11%
growth at 0.1 µM (MDA-MB-435): 88%
growth at 0.1 µM (U-251 [17]): 86%
growth at 0.1 µM (SNB-19): 89%
growth at 0.1 µM [18]: 93%
growth at 0.1 µM (SF-268): 98%
growth at 0.1 µM (A549 [19]): 94%
GI50 (PC-3): 0.288 µM
LC50 (PC-3): > 100 µM
growth at 0.01 µM (PC-3): 100%
TGI (PC-3): 1.02 µM
GI50 [20]: 1.38 µM
LC50 [20]: > 100 µM
growth at 0.01 µM [20]: 105%
TGI [20]: > 100 µM

Cc1ccc(S(=O)(=O)N2C/C(=C\c3cc(F)cc(F)c3)C(=O)/C(=C/c3cc(F)cc(F)c3)C2)cc1
GI50 (SK-MEL-2 [1]): 1.97 µM
TGI (SK-MEL-2 [1]): 4.66 µM
CC50 (SK-MEL-2 [1]): 14.8 µM
Activity (COLO 205 [2]): 69.5%
growth at 1 µM [3]: -38%
growth at 1 µM [4]: 49%
growth at 1 µM [5]: -82%
growth at 1 µM [6]: 29%
growth at 1 µM (SW-620 [7]): -45%
growth at 1 µM (A549 [8]): 86%
growth at 0.1 µM [9]: 88%
growth at 10 µM (SK-MEL-2 [10]): -44%
growth at 1 µM (SK-OV-3): 77%
GI50 (Malme-3M): 0.275 µM
LC50 (Malme-3M): 3.8 µM
growth at 0.01 µM (Malme-3M): 97%
TGI (Malme-3M; read-out: pTGI (converted)): 0.741 µM
GI50 (KM12): 0.324 µM
LC50 (KM12): 4.07 µM
growth at 0.01 µM (KM12): 106%
TGI (KM12): 1 µM
GI50 [11]: 0.251 µM
LC50 [11]: 30.9 µM
growth at 0.01 µM [11]: 91%
TGI [11]: 1.29 µM
GI50 (COLO 205 [12]): 0.617 µM
LC50 (COLO 205 [12]): 6.17 µM
growth at 0.01 µM (COLO 205 [12]): 107%
TGI (COLO 205 [12]): 2.09 µM
GI50 (RPMI-8226): 0.0372 µM
growth at 0.01 µM (RPMI-8226): 94%
CC50 (RPMI-8226): 93.3 µM
TGI (RPMI-8226): 0.331 µM
GI50 (K562): 0.0776 µM
growth at 0.01 µM (K562): 94%
CC50 (K562): > 100 µM
TGI (K562): 1.38 µM
GI50 (SN12C): 0.342 µM
TGI (SN12C): 1.31 µM
CC50 (SN12C): 4.26 µM
GI50 (CAKI-1): 0.365 µM
TGI (CAKI-1): 2.43 µM
CC50 (CAKI-1): 61.9 µM
GI50 (U-251 [13]): 0.188 µM
TGI (U-251 [13]): 0.53 µM
CC50 (U-251 [13]): 2.02 µM
GI50 (SW-620 [14]): 0.0721 µM
TGI (SW-620 [14]): 0.305 µM
CC50 (SW-620 [14]): 1.45 µM
GI50 (COLO 205 [15]): 0.612 µM
TGI (COLO 205 [15]): 2.11 µM
CC50 (COLO 205 [15]): 6.14 µM
GI50 [16]: 1.11 µM
TGI [16]: 3.3 µM
CC50 [16]: 9.78 µM
GI50 (CCRF-CEM): 0.0748 µM
TGI (CCRF-CEM): 0.951 µM
CC50 (CCRF-CEM): > 100 µM
growth at 100 µM (T47D): -61%
growth at 0.1 µM (MDA-MB-435): 92%
growth at 0.1 µM (U-251 [17]): 80%
growth at 0.1 µM (SNB-19): 82%
growth at 0.1 µM [18]: 92%
growth at 0.1 µM (SF-268): 100%
growth at 0.1 µM (A549 [19]): 93%
GI50 (PC-3): 0.245 µM
LC50 (PC-3): 9.33 µM
growth at 0.01 µM (PC-3): 93%
TGI (PC-3): 0.794 µM
GI50 [20]: 0.437 µM
LC50 [20]: 75.9 µM
growth at 0.01 µM [20]: 104%
TGI [20]: 10.2 µM
